Assays:
[1] = tested on: hypercholesterolemic male rat; assay: Inhibition of dietary induced hypercholesterolemia in male rats (serum lipids); type: in vivo; set-up: key to Cholesterol lowering / Triglyceride lowering: In = Inactive at dose tested; A = Activity> clofibrate; M = Activity≤ clofibrate; details: for Cholesterol lowering / Triglyceride lowering: rats, efficacy compared to clofibrate, dose not given; for % change in serum from control HDL: HDL cholesterol; for % change in serum from control HDL / % change in serum from control VLDL & LDL / % change in serum from control Cholesterol / % change in serum from control Triglyceride: male rats, oral; for % change in serum from control VLDL & LDL: VLDL & LDL cholesterol (difference between total and HDL cholesterol); for % change in serum from control Cholesterol / % change in serum from control Triglyceride: twice daily 3 days and once on day 4
Procedure: Hypercholesterolemia was produced in male rats after 3 days in a diet of 0.4% cholesterol and 0.2% sodium cholate. Each group contained 4 rats. Compounds tested were given orally twice daily for 3 days and once on day 4. Control animals received the vehicle, methyl cellulose. The cholesterol-containing diet and compound treatment were started at the same time. Animals were bled before dietary and compound treatment and 3 hr after the last dose of compound on day 4. All bleedings were after a 4 hr fast. Total serum cholesterol, triglyceride and high density lipoprotein (HDL) cholesterol determined by the procedure and test kit supplied by Dow Diagnostics (Trademark of the Dow Chemical Co. Laboratories, Indianapolis, IN). Very low and low density lipoprotein (VLDL & LDL) cholesterol were determined by the difference between total and HDL cholesterol.
By the method of Example 5 various compounds of formula (IA) were assessed for their ability to reduce cholesterol and triglyceride levels in rats. The compounds were compared in efficacy to clofibrate.

rats = assay: Oral toxicity in rats; type: in vivo; details: oral administration to rats at upto 1 g/kg bodyweight

Cc1ccc(-c2ccccc2C(=O)O)cc1 [CH3, 2-(4-Methylphenyl)-benzoic acid]
Cholesterol lowering [1]: M | Triglyceride lowering [1]: M

O=C(O)c1ccccc1-c1ccc(Cl)cc1 [Cl, 2-(4-Chlorophenyl)-benzoic acid]
Cholesterol lowering [1]: M | Triglyceride lowering [1]: In

CCOC(=O)C(C)(C)Oc1ccc(Cl)cc1 [Clofibrate, reference compound]
% change in serum from control HDL ([1]; dose 100 mg/kg/day): −21% | % change in serum from control HDL ([1]; dose 200 mg/kg/day): −28% | % change in serum from control VLDL & LDL ([1]; dose 100 mg/kg/day): 0% | % change in serum from control VLDL & LDL ([1]; dose 200 mg/kg/day): −29% | % change in serum from control Cholesterol ([1]; dose 25 mg/kg/day): 0% | % change in serum from control Triglyceride ([1]; dose 25 mg/kg/day): 0% | % change in serum from control Cholesterol ([1]; dose 50 mg/kg/day): 0% | % change in serum from control Triglyceride ([1]; dose 50 mg/kg/day): −31% | % change in serum from control Cholesterol ([1]; dose 100 mg/kg/day): 0% | % change in serum from control Triglyceride ([1]; dose 100 mg/kg/day): −33% | % change in serum from control Cholesterol ([1]; dose 200 mg/kg/day): −28% | % change in serum from control Triglyceride ([1]; dose 200 mg/kg/day): −40%

CCc1ccc(-c2ccccc2C(=O)O)cc1 [Example C2H5, 2-(4-Ethylphenyl)-benzoic acid]
Cholesterol lowering [1]: A | Triglyceride lowering [1]: A

O=C(O)c1ccccc1-c1ccc(F)cc1 [F, 2-(4-Fluorophenyl)-benzoic acid]
Cholesterol lowering [1]: In | Triglyceride lowering [1]: M

CC(C)c1ccc(-c2ccccc2C(=O)O)cc1 [I C3H7, 2-(4-isoPropylphenyl)-benzoic acid]
Cholesterol lowering [1]: A | Triglyceride lowering [1]: A

O=C(O)c1ccccc1-c1ccc(C(F)(F)F)cc1 [IA(R=CF3), 2-(4-trifluoromethylphenyl)benzoic acid]
% change in serum from control HDL ([1]; dose 25 mg/kg/day): −6% | % change in serum from control HDL ([1]; dose 50 mg/kg/day): +10% | % change in serum from control HDL ([1]; dose 150 mg/kg/day): −15% | % change in serum from control VLDL & LDL ([1]; dose 25 mg/kg/day): −46% | % change in serum from control VLDL & LDL ([1]; dose 50 mg/kg/day): −64% | % change in serum from control VLDL & LDL ([1]; dose 150 mg/kg/day): −52% | % change in serum from control Cholesterol ([1]; dose 25 mg/kg/day): −40% | % change in serum from control Triglyceride ([1]; dose 25 mg/kg/day): −43% | % change in serum from control Cholesterol ([1]; dose 50 mg/kg/day): −56% | % change in serum from control Triglyceride ([1]; dose 50 mg/kg/day): −53% | % change in serum from control Cholesterol ([1]; dose 100 mg/kg/day): −51% | % change in serum from control Triglyceride ([1]; dose 100 mg/kg/day): −57% | % change in serum from control Cholesterol ([1]; dose 150 mg/kg/day): −40% | % change in serum from control Triglyceride ([1]; dose 150 mg/kg/day): −60% | Cholesterol lowering [1]: A | Triglyceride lowering [1]: A | deaths (rats): no deaths were observed

COc1ccc(-c2ccccc2C(=O)O)cc1 [OCH3, 2-(4-Methoxyphenyl)-benzoic acid]
Cholesterol lowering [1]: M | Triglyceride lowering [1]: A

CCCCc1ccc(-c2ccccc2C(=O)O)cc1 [n C4H9, 2-(4-n-butylphenyl)benzoic acid]
Cholesterol lowering [1]: A | Triglyceride lowering [1]: A

CC(C)(C)c1ccc(-c2ccccc2C(=O)O)cc1 [t C4H9, 2-(4-t-Butylphenyl)-benzoic acid]
Cholesterol lowering [1]: M | Triglyceride lowering [1]: A
